What all share (assay type): cell-based
Assay [1] relates to adult human fibroblasts. Nature of the assay: Live fluorescent imaging of uptake and nuclear occupancy of sGFP polypeptides in fibroblasts. The conditions noted are these: 10 μg/ml. The procedure: FIG. 5. Live fluorescent imaging of human fibroblasts after culturing in 10 μg/ml of first generation sGFP-MyoD-11R.
In the first generation of transducible materials, a sGFP transduction domain and a poly-arginine (11R) were fused to the N-terminus and C-terminus of MyoD through a linker (SEQ ID NO: 99) respectively to generate sGFP-MyoD-11R (SEQ ID NO: 156). […] The nuclear entry of sGFP-MyoD-11R was increased by using 100 μg/ml sGFP-MyoD-11R and electroporation, which successful reprogrammed very low percentage (around 10%) of FBs to MyoD+ myoblasts.
The second generation of transducible materials, a strong classic nuclear localization sequence (cNLS), the SV40 T antigen NLS, was added in-between sGFP and MyoD-11R (SEQ ID NO: 157 and FIG. 3).
Leptomycin B (leptoB), a nuclear export blocker, was added at 5 nM to adult fibroblasts to enhance nuclear occupancy of sGFP-NLS-MyoD-11R. […] Higher concentrations of leptoB might have off-target effects, which limits its use in enhancing nuclear retention of specific polypeptides.
In the third generation of transducible materials, the NES of MyoD was mutated to generate sGFP-NLS-MyoD(mNES)-11R (SEQ ID NO: 127 and FIG. 3) to further improve their nuclear occupancy and transcription efficiency. […] These SCs were positive for Myf5 (>90% of SCs) at 22 days after transduction (FIG. 8B). Also, these SCs could be induced to differentiate to myoblasts with downregulation of Pax7 and upregulation of MyoD via a published myogenic protocol (Cosgrove et al, Rejuvenation of the muscle stem cell population restores strength to injured aged muscles, Nat Med., 20:255-64 (2014)). […] Thus, by using sGFP-NLS-MyoD(mNES)-11R, efficient fibroblasts conversion to SMPCs can be achieved in a controlled fashion. The risk of extensive durations of MyoD activation is completely avoided. Most myogenic analysis was performed at >2 weeks after polypeptide transduction to avoid confounding issues from added exogenous polypeptides. In summary, adult fibroblast can be successfully reprogrammed to SCs using sGFP-NLS-MyoD(mNES)-11R with defined kinetics (2-day nuclear occupancy and 2-3 week peptide lifespan).

Assay [2] relates to adult human fibroblasts. Nature of the assay: Reprogramming of fibroblasts to skeletal muscle progenitor cells (satellite cells, myoblasts). As to the method: FIG. 4. Schematic of experimental protocol to convert fibroblasts to myoblasts with transducible materials derived from MyoD.
In this example, three versions of transducible materials derived from MyoD (the master myogenic transcription factor) were generated and their effects on reprogramming fibroblast cells into skeletal muscle progenitor cells (SMPCs) were compared.
Most myogenic analysis was performed at >2 weeks after polypeptide transduction to avoid confounding issues from added exogenous polypeptides.

The subject of assay [3] is Oct4 target genes (Oct4, Sox2, Nanog, Smad3 and Smad4). Nature of the assay: RT-qPCR of Oct4 target genes in HepG2 cells treated with transducible materials. Particulars: serum-free medium, 6 hours, normalized by GAPDH, sGFP-treated sample set as 1.00. As to the method: FIG. 2. Comparison of sGFP-Oct4(mNES) and sGFP-Oct4 protein in regulating the expression of downstream genes. HepG2 cells were treated with sGFP, sGFP-Oct4 or sGFP-Oct4(mNES) in serum-free medium for 6 hours. RNA was isolated and RT-qPCR was performed. The expression of each gene was normalized by the expression level of GAPDH. The relative expression level of each gene in the control condition (sGFP-treated sample) was set as 1.00.
HepG2 cells were treated with transducible materials comprising isolated polypeptide of sGFP, sGFP-Oct4-11R or sGFP-Oct4(mNES)-11R in serum-free medium for 6 hours. RNA was extracted from each sample using RNeasy Micro Kit from Qiagen and cDNA was synthesized through reverse transcription reaction. RT-qPCRs of five Oct4 target genes (Oct4, Sox2, Nanog, Smad3 and Smad4 were performed using a pair of primers specific to each target gene and a hydrolysis probe from Roche Universal ProbeLibrary on LightCycler 480 II. The expression of each gene was normalized by the expression level of GAPDH. The relative expression level of each gene in the control condition (sGFP-treated sample) was set as 1.00.

Entries after “also recorded” stand apart in the source; their conditions may differ.

The record followed here is patent publication US20160168541A1, “TRANSDUCIBLE MATERIALS FOR CELL REPROGRAMMING” (VIVOSCRIPT, INC., priority 2013, published 2016).

As for “sGFP-NLS-MyoD-11R: Second generation: SV40 T antigen NLS added between sGFP and MyoD-11R, SEQ ID NO: 157”, the “time the polypeptide stays in the nucleus” value in the assay on adult human fibroblasts [1] (leptomycin B 5 nM) was > 24 h. Moreover, the “nuclear occupancy (GFP signal in nuclei) with leptomycin B” value in the assay on adult human fibroblasts [1] (leptomycin B 5 nM, third generation at 30 min, 24 hours and 48 hours) is “slightly improves the nuclear occupancy”. Besides, in the assay on adult human fibroblasts [1] (no leptomycin B), the “nuclear occupancy (localization of GFP signal)” value is given as “more transducible materials were observed in nuclei; also recorded: GFP signal were observed in the nuclei”. Further, in the assay on adult human fibroblasts [1] (no leptomycin B, 24 hours), the “change of nuclear occupancy with time” value is listed as “significantly decreased within 24 hours; also recorded: GFP signal in the nuclei decreased after 24 hours”. The “reprogramming of fibroblasts to SMPCs” value in the assay on adult human fibroblasts [2] (10 μg/ml, no leptomycin B) is “low and inconsistent”. Moreover, in the assay on adult human fibroblasts [2] (continuous presence of leptomycin B 5 nM), the “reprogramming efficiency of adult fibroblasts to SMPCs” value is listed as “around 5%”.
“sGFP-Oct4-11R: Fusion polypeptide of supercharged GFP, Oct4 and 11R, SEQ ID NO: 155, unmutated NES”: the “expression of Oct4 target genes” value in assay [3] was “does not increase”.
